Experimental data: patent US8163795B2, “Chroman derivatives, medicaments and use in therapy” (Marshall Edwards, Inc., priority 2004, dated 2012)
Read-outs that look alike come from different tables or passages of the source.

Experiments:
[1] = system: SKOV-3 ovarian cancer cell line; assay: Proliferation assay (MTT); type: cell-based
[2] = system: A2058 melanoma cell line; assay: Proliferation assay (MTT); type: cell-based; conditions: Table 2.1; Melanoma A2058
[3] = system: MM200 melanoma cell line; assay: Proliferation assay (MTT); type: cell-based
[4] = system: Neonatal foreskin fibroblasts (NFF); assay: Proliferation assay (MTT), normal cell toxicity; type: cell-based, Human; conditions: read-out: IC50
Procedure: (§1) The normal cell line NFF (neonatal foreskin fibroblasts) was a sift from Dr. Peter Parsons (Queensland Institute of Medical Research). RK (rabbit kidney) cells were obtained from Miller Whalley (Macquarie University). Both cell lines were cultured in RPMI supplemented with 10% FCS(CSL, Australia), penicillin (100 U/ml), streptomycin ([…]), L-glutamine (2 mM) and sodium bicarbonate (1.2 g/L), and cultured at 37° C. in a humidified atmosphere of 5% CO2.
(§2) IC50 values were determined for each cell line. Cells were seeded in 96-well plates at an appropriate cell density as determined from growth kinetics analysis and cultured for 5 days in the absence and presence of the test compounds. Cell proliferation was assessed after the addition of 20 μl of 3-4,5 dimethylthiazol-2,5-diphenyl tetrazolium bromide (MTT, 2.5 mg/ml in PBS, Sigma) for 3-4 hrs at 37° C. according to manufacturer's instructions. IC50 values were calculated from semi-log plots of % of control proliferation on the y-axis against log dose on the x-axis.

[5] = system: NCI-H460 (Lung); assay: Proliferation assay (MTT); type: cell-based; conditions: Table 2.1, Lung NCI-H460
Procedure: (§3) All cultures were supplemented with 10% FCS (fetal calf serum CSL, Australia), penicillin (100 U/ml), streptomycin ([…]), L-glutamine (2 mM) and sodium bicarbonate (1.2 g/L), and cultured at 37° C. in a humidified atmosphere of 5% CO2. All cell lines were purchased from ATCC (Maryland, USA) except where noted.
as §2

[6] = system: HTB-138 (Glioma); assay: Proliferation assay (MTT); type: cell-based; conditions: Table 2.1; Glioma HTB-138
Procedure: as §3, §2

[7] = system: A2780 (Ovarian); assay: Proliferation assay (MTT); type: cell-based; conditions: Table 2.1
Procedure: as §3, §2

[8] = system: PC3 prostate cancer cell line; assay: Proliferation assay (MTT); type: cell-based; conditions: Table 2.1
Procedure: as §3, §2

[9] = system: DU145 (Prostate); assay: Proliferation assay (MTT); type: cell-based
Procedure: as §3, §2

[10] = system: LNCaP (Prostate); assay: Proliferation assay (MTT); type: cell-based; conditions: Table 2.1
Procedure: as §3, §2

[11] = system: MCF-7 breast cancer cell line; assay: Proliferation assay (MTT); type: cell-based; conditions: Table 2.1, Breast MCF-7
Procedure: as §3, §2

[12] = system: HCT-15 (Colorectal); assay: Proliferation assay (MTT); type: cell-based; conditions: Table 2.1, Colorectal HCT-15
Procedure: as §3, §2

[13] = system: HT-29 (Colorectal); assay: Proliferation assay (MTT); type: cell-based; conditions: Table 2.1, Colorectal HT-29
Procedure: as §3, §2

[14] = system: MDA-MB-468 breast cancer cell line; assay: Proliferation assay (MTT); type: cell-based
[15] = system: MM200 melanoma cell line; assay: HMC combination with cisplatin (synergy); type: cell-based; conditions: Table 8, single agent
Procedure: as §2
3-D model analysis of the cytotoxic interaction between drug A and drug B enables the representation of predicted inhibitory effect of two drugs in combination in 3 dimensions to reveal actual regions of synergy or antagonism. The 3D synergy plots are based on a theory of “Theretical Additivity” (TA) as outlined by Kanzawa et al (Int. J. Cancer 71, 311-319 (1997)). Theoretical Additivity was calculated from the cytotoxicities of drug A and drug B as monotherapies using the following formula which assumes the drugs are mutually exclusive inhibitors: […]
The TA is calculated for each combination of drug concentrations and subtracted from the observed experimental effect for each combination to give a measurement of synergisitic action.
HMC synergy with cisplatin was assessed either in combination over 5 days exposure or in sequence (HMC→cisplatin) against the MM200 melanoma cell line. It was difficult to assess for synergisitic toxicity using a change in IC50 as a measure of synergy due to HMC toxicity as monotherapy (Table 8). […] Evidence of synergy using the HMC-cisplatin combination was further assessed using the HMC→cisplatin sequence (24 hr exposure to each compound in sequence) against the melanoma cell line MM200. Using change in IC50 to assess for synergy it was noted that HMC at concentrations of 2 μM markedly chemosensitised the MM200 cells to cisplatin by >1000 fold (Table 8). HMC induced chemosensitisation of MM200 cells to cisplatin was confirmed using 3D analysis of the data (FIG. 11B).

[16] = system: CP70 ovarian cancer cell line; assay: Proliferation assay (MTT); type: cell-based
[17] = system: HPAC (CRL-2119) pancreatic cancer cell line; assay: Proliferation assay (MTT); type: cell-based, human
[18] = DHE and HMC pharmacokinetics, oral, mice; type: in vivo, female BALB/c mice; conditions: for Free plasma concentration: 50 mg/kg p.o.
Procedure: HMC and DHE were prepared as homogenous suspensions in 1% CMC (m:v, water). Both formulations were delivered orally by gavage to female BALB/c mice at a dosage of 50 mg/kg. Three animals were allocated to each timepoint (15 min, 30 min, 1 hr, 4 hr and 24 hr). At each respective timepoint, animals were euthanased by cervical dislocation and blood collected. Free HMC was analysed by mass spectroscopy.

[19] = system: MEL-RM melanoma cells (TRAIL sensitive); assay: Apoptosis incidence in melanoma cells; type: cell-based
[20] = system: normal fibroblasts (MRC-5); assay: Apoptosis in normal fibroblasts; type: cell-based; conditions: same concentration (8 μM) and exposure times (24 and 48 hr) as melanoma cells
Procedure: Studies were conducted on normal fibroblasts (MRC-5) and TRAIL-sensitive melanoma cells (ME4405 and MEL-RM) using 8 μM of either DHE, or HMC over 24 and 48 hr of exposure (FIG. 9).

[21] = system: TRAIL-sensitive and -resistant melanoma cells; assay: Apoptosis incidence, statements over several melanoma cell lines; type: cell-based; conditions: 4 μM, 24 hr exposure, DHE-treated cells
[22] = system: CCRF-CEM (Leukemic); assay: Proliferation assay (MTT); type: cell-based; conditions: Homo sapiens; Table 2.1; Leukemic CCRF-CEM
Procedure: as §3, §2

[23] = system: NCI-H23 (Lung); assay: Proliferation assay (MTT); type: cell-based; conditions: Homo sapiens, Table 2.1
Procedure: as §3, §2

[24] = system: RPMI-8226 (Leukemic); assay: Proliferation assay (MTT); type: cell-based; conditions: Homo sapiens; Table 2.1; Leukemic RPMI-8226
Procedure: as §3, §2

[25] = system: MM96L melanoma cell line; assay: Proliferation assay (MTT); type: cell-based; conditions: Homo sapiens, Table 15
Procedure: as §3, §2

[26] = system: SKMe128 melanoma cell line; assay: Proliferation assay (MTT); type: cell-based; conditions: Table 15
Procedure: as §3, §2

[27] = system: ME4405 melanoma cells (TRAIL sensitive); assay: Apoptosis incidence in melanoma cells; type: cell-based
[28] = system: rabbit kidney cells (RK); assay: Proliferation assay (MTT), normal cell toxicity; type: cell-based; conditions: read-out: IC50
Procedure: as §1, §2

[29] = system: Mel-AT melanoma cells (Trail +ve/Caspase 8 −ve); assay: Apoptosis incidence in melanoma cells; type: cell-based
[30] = system: IGR3 melanoma cells (Trail-resistant); assay: Apoptosis incidence in melanoma cells; type: cell-based
[31] = Table 1, Neonatal Foreskin Fibroblasts (Human, NFF)

N.N.[Cl][Pt][Cl] [Cisplatin, cisplatin, reference compound]
IC50 ([1]; Table 2.1, Ovarian SKOV-3, read-out: IC50): 5.4 µM
IC50 [2]: 5.73 ± 2.3 µM
IC50 ([3]; Table 2.1, Melanoma MM200, read-out: IC50): 8.3 ± 0.7 µM
IC50 [4, 31]: 9.85 ± 5 µM
IC50 [5]: 22.3 µM
IC50 [6]: 42.3 µM
IC50 [7]: 2.1 µM
IC50 [8]: 2.11 µM
IC50 ([9]; Table 2.1): 2.07 µM
IC50 [10]: > 10 µM
IC50 [11]: 3.69 µM
IC50 [12]: 130 ± 39 µM
IC50 [13]: 22.7 ± 35 µM
IC50 ([14]; Table 2.1, Breast MDA-MB-468, read-out: IC50): 0.58 µM
IC50 ([15]; 24 hr exposure, read-out: IC50, 24 hr (monotherapy)): 6.32 µM
IC50 ([15]; 5 days exposure, read-out: IC50, Combined (monotherapy)): 8.82 µM
IC50 ([16]; Table 2.1, Ovarian CP70, read-out: IC50): 10.3 µM
IC50 ([17]; Table 2.1, Pancreatic CRL-2119, read-out: IC50): 9.36 µM

Oc1ccc(C2=Cc3ccc(O)cc3OC2)cc1 [DHE, dehydroequol, reference compound]
IC50 ([1]; Homo sapiens, SK-OV-3): 21.8 ± 4.65 µM
Free plasma concentration ([18]; Time 0.25): 3300 ± 130 nM
Free plasma concentration ([18]; Time 0.5): 2900 ± 50 nM
Free plasma concentration ([18]; Time 1): 1500 ± 110 nM
Free plasma concentration ([18]; Time 4): 1300 ± 70 nM
Free plasma concentration ([18]; Time 24): 150 ± 40 nM
maximum plasma concentration of the free form ([18]; oral 50 mg/kg): 3.3 µM
ratio of free:total ([18]; oral 50 mg/kg): 0.64
time of maximum free concentration ([18]; oral 50 mg/kg): 15 min
Percent Apoptosis ([19]; 24 hr exposure, 1 uM): 0%
Percent Apoptosis ([19]; 24 hr exposure, 2 uM): 0%
Percent Apoptosis ([19]; 24 hr exposure, 4 uM): 0%
Percent Apoptosis ([19]; 24 hr exposure, 8 uM): 2%
Percent Apoptosis ([19]; 24 hr exposure, 20 uM): 5%
Percent Apoptosis ([19]; 48 hr exposure, 1 uM): 1%
Percent Apoptosis ([19]; 48 hr exposure, 2 uM): 1.5%
Percent Apoptosis ([19]; 48 hr exposure, 4 uM): 3%
Percent Apoptosis ([19]; 48 hr exposure, 8 uM): 10%
Percent Apoptosis ([19]; 48 hr exposure, 20 uM): 12%
induction of apoptosis in normal fibroblasts [20]: do not induce apoptosis
IC50 ([3]; Table 2.1, Melanoma MM200): 2.9 µM
IC50 ([3]; Table 15, melanoma MM200, monotherapy): 4.77 ± 4 µM
incidence of apoptosis [21]: 0-1%
IC50 ([4]; Homo sapiens, Fibroblast, NFF): > 150 µM
IC50 [4, 31]: > 150 µM
IC50 ([5]; Homo sapiens): 10.6 ± 3.8 µM
IC50 [6]: 7.35 ± 0.89 µM
IC50 ([7]; Homo sapiens): 1.7 ± 0.61 µM
IC50 [8]: 9.09 ± 8.12 µM
IC50 [22]: 1.7 ± 0.68 µM
IC50 ([9]; Homo sapiens, DU-145, Table 2.1): 5.95 ± 1.5 µM
IC50 ([10]; Homo sapiens): 4.8 ± 3.8 µM
IC50 ([11]; Homo sapiens, MCF7): 21.5 ± 13.2 µM
IC50 ([12]; Homo sapiens): 24.4 ± 12.6 µM
IC50 [23]: 8.75 ± 7.2 µM
IC50 [24]: 3.72 ± 0.08 µM
IC50 ([13]; Homo sapiens): 50.5 ± 21.9 µM
IC50 [25]: 4.76 µM
IC50 [26]: 4.4 µM
Percent Apoptosis ([27]; 24 hr exposure, 1 uM): 0%
Percent Apoptosis ([27]; 24 hr exposure, 2 uM): 2%
Percent Apoptosis ([27]; 24 hr exposure, 4 uM): 2%
Percent Apoptosis ([27]; 24 hr exposure, 8 uM): 6%
Percent Apoptosis ([27]; 24 hr exposure, 20 uM): 11%
Percent Apoptosis ([27]; 48 hr exposure, 1 uM): 1%
Percent Apoptosis ([27]; 48 hr exposure, 2 uM): 3%
Percent Apoptosis ([27]; 48 hr exposure, 4 uM): 14%
Percent Apoptosis ([27]; 48 hr exposure, 8 uM): 40%
Percent Apoptosis ([27]; 48 hr exposure, 20 uM): 35%
IC50 ([14]; Homo sapiens, MDA-MB-468): 7.9 ± 3.5 µM
IC50 [16]: 1.69 ± 0.62 µM
IC50 ([28]; Oryctolagus cuniculus, rabbit kidney cells): > 150 µM
IC50 ([28]; Table 1, Rabbit Kidney): > 150 µM
Percent Apoptosis ([29]; 24 hr exposure, 1 uM): 0%
Percent Apoptosis ([29]; 24 hr exposure, 2 uM): 3%
Percent Apoptosis ([29]; 24 hr exposure, 4 uM): 4%
Percent Apoptosis ([29]; 24 hr exposure, 8 uM): 8%
Percent Apoptosis ([29]; 24 hr exposure, 20 uM): 10%
Percent Apoptosis ([29]; 48 hr exposure, 1 uM): 1.5%
Percent Apoptosis ([29]; 48 hr exposure, 2 uM): 5%
Percent Apoptosis ([29]; 48 hr exposure, 4 uM): 15%
Percent Apoptosis ([29]; 48 hr exposure, 8 uM): 43%
Percent Apoptosis ([29]; 48 hr exposure, 20 uM): 40%
Percent Apoptosis ([30]; 24 hr exposure, 1 uM): 0%
Percent Apoptosis ([30]; 24 hr exposure, 2 uM): 0%
Percent Apoptosis ([30]; 24 hr exposure, 4 uM): 1%
Percent Apoptosis ([30]; 24 hr exposure, 8 uM): 3%
Percent Apoptosis ([30]; 24 hr exposure, 20 uM): 4%
Percent Apoptosis ([30]; 48 hr exposure, 1 uM): 1%
Percent Apoptosis ([30]; 48 hr exposure, 2 uM): 1%
Percent Apoptosis ([30]; 48 hr exposure, 4 uM): 2%
Percent Apoptosis ([30]; 48 hr exposure, 8 uM): 8%
Percent Apoptosis ([30]; 48 hr exposure, 20 uM): 8%
IC50 ([17]; Homo sapiens, HPAC): 56.6 ± 16.8 µM
